“Also recorded” adds a separate entry of the source.
B1: MEHD7945A: a dual ERBB3/EGFR antibody that blocks ligand binding (binds domain III of EGFR and ERBB3) (antibody, V domains shown)
VH: EVQLVESGGGLVQPGGSLRLSCAASGFTLSGDWIHWVRQAPGKGLEWVGEISAAGGYTDYADSVKGRFTISADTSKNTAYLQMNSLRAEDTAVYYCARESRVSFEAAMDYWGQGTLVTVSS
VL: DIQMTQSPSSLSASVGDRVTITCRASQNIATDVAWYQQKPGKAPKLLIYSASFLYSGVPSRFSGSGSGTDFTLTISSLQPEDFATYYCQQSEPEPYTFGQGTKVEIKR

Legend:
[1] = test system: BaF3 cells stably expressing ERBB3 mutants together with ERBB2; test: Survival and proliferation assay, IL-3 independent BaF3 cells; assay type: cell-based, mouse; conditions: for blocking oncogenic signaling by ERBB3 mutants: summary statement
Experimental: BaF3 cells stably expressing the wild-type and mutant ERBB3 alone or together with EGFR or ERBB2, were washed twice in PBS and plated in 3×96-well plates in replicates of eight in complete RPMI medium without IL3. As needed cells were then treated with different concentration of NRG1 and anti-NRG1 antibody or different ERBB antibodies, tyrosine kinase or PI3K small molecule inhibitors to test their effects on survival or cell proliferation, where relevant as depicted in the figures. Viable cells at 0 h and 120 h were determined using Cell Titer-Glo luminescence cell viability kit (Promega Corp., WI) and Synergy 2 (Biotek Instrument, CA) luminescence plate reader. All the cell number values were normalized against Oh values. In order to assess proliferation of MCF10A stably expressing ERBB3-WT or mutants were washed twice in PBS and 5000 cells plated in 96-well plates in replicates of eight in triplicates serum-free media and allowed to proliferate for 5 days. Cell numbers were measure at day 0 and day 5 using the luminescence cell viability kit. […] Mean and statistical significance was determined using GraphPad V software (GraphPad, CA).

[2] = test system: BaF3 cells stably expressing ERBB3 mutants together with ERBB2; test: Colony formation assay (anchorage-independent growth), BaF3 cells; assay type: cell-based, mouse
Experimental: BaF3 cells stably expressing EGFR (2×10^5) or ERBB2 (50,000) along with ERBB3 wild-type or mutants, was mixed with 2 mls of IL3-free Methylcellulose ([…] Technologies, Canada) and plated on to 6 well plates and when indicated, cells were treated with different ERBB antibodies or tyrosine kinase or PI3K small molecule inhibitors before plating. Plates were then incubated at 37° C. for 2 weeks. For MCF10A colony formation, 20,000 MCF10A cells stably expressing ERBB3-WT or mutants alone or in combination with EGFR or ERBB2 were mixed with 0.35% agar in DMEM: F12 lacking serum, EGF, and NRG1 and plated on 0.5% base agar. Plates were then incubated at 37° C. for 3 weeks. The presence of colonies was assessed using Gel count imager (Oxford Optronix Ltd, UK). The number of colonies in each plate was quantified using Gel count software (Oxford Optronix Ltd, UK).

[3] = all the ERBB3 mutants tested, co-expressed with ERBB2, no IL-3
[4] = Q809R kinase domain ERBB3 mutant, at the tested dose
[5] = all the mutants tested except Q809R

Row | Molecule | blocking cell proliferation [1, 3] | blocking colony formation [2, 3] | blocking cell proliferation ([1]; ERBB3 ECD mutants) | blocking cell proliferation [1, 4] | blocking cell proliferation [1, 5] | blocking oncogenic signaling by ERBB3 mutants ([1]; in vitro and in vivo, majority/most of the ERBB3 mutants tested) | blocking oncogenic signaling by ERBB3 mutants ([1]; kinase domain mutant Q809R) | blocking colony formation ([2]; ERBB3 ECD mutants) | blocking colony formation [2, 4] | blocking colony formation [2, 5]
1 | CS(=O)(=O)CCNCc1ccc(-c2ccc3ncnc(Nc4ccc(OCc5cccc(F)c5)c(Cl)c4)c3c2)o1 [lapatinib] | quite effective | quite effective | – | – | – | – | – | – | – | –
2 | CS(=O)(=O)N1CCN(Cc2cc3nc(-c4cccc5[nH]ncc45)nc(N4CCOCC4)c3s2)CC1 [GDC-0941] | – | – | very effective | only partially effective; also recorded: only modestly effective | effective | quite active | not as effective; also recorded: reduced efficacy | very effective | only partially effective; also recorded: only modestly effective | effective
3 | B1 | – | effective | – | – | – | – | – | – | – | –

Source: patent publication US20130195870A1, “ERBB3 Mutations In Cancer” (Genentech, Inc., priority 2011, published 2013)
